The text below walks through data of PubChem BioAssay (NCI).

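Interpolation was linear, between the two tested concentrations surrounding the appropriate level; five concentrations were tested over 48 hours in 96-well plates. TGI denotes the concentration required for complete inhibition of growth.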

Assay in all cases: NCI-60 cell line screen, 48 h
The subject of experiment [1] is ACHN renal.
Experiment [2] concerns DU-145 prostate.
The test system of experiment [3] is HCT-15 colon.
For experiment [4], the system named is HL-60(TB) leukemia.
The subject of experiment [5] is HOP-62 NSCLC.
For experiment [6], the system named is HOP-92 NSCLC.
In experiment [7] the test system is K-562 leukemia.
Experiment [8] relates to LOX IMVI melanoma.
Experiment [9] concerns M14 melanoma.
Experiment [10] has as its system MCF7 breast.
Experiment [11] concerns MDA-MB-231 breast.
For experiment [12], the system named is NCI-H23 lung.
Experiment [13] relates to NCI-H522 lung.
Experiment [14] deals with SK-MEL-28 melanoma.
In experiment [15] the test system is SK-MEL-5 melanoma.
Experiment [16] deals with SW-620 colon.
In experiment [17] the test system is U251 CNS.
Experiment [18] deals with UO-31 renal.
The test system of experiment [19] is MDA-N.
Experiment [20] deals with BT-549 breast.

For `COC(O)C(=O)c1c2c(cc3c1CC1(Cc4cc5c(cc4C1)CCC5)C3)CCC2` (centres undefined), the TGI in experiment [1] came out at 29.3 µM; in experiment [2], 33.7 µM; in [3], 39.8 µM; in experiment [4] it was 44.3 µM; in experiment [5], 30.2 µM; in experiment [6] it was 31 µM. Besides, the TGI was 36.2 µM in experiment [7]; 22.8 µM in experiment [8]; 31 µM in [9]; 33.9 µM in experiment [10]; 29.2 µM in experiment [11]; 33.1 µM in experiment [12]. The TGI in [13] worked out at 36.1 µM; in [14], 35.7 µM; in [15], 31.3 µM; in experiment [16], 35.5 µM; in [17], 25.7 µM; in experiment [18] it was 35.8 µM.
As to `Cc1csc(=S)n1OC(=O)NC1CCCCC1`, the TGI in experiment [1] is above 100 µM; in experiment [3], above 100 µM; in experiment [4], 56.5 µM; in experiment [5], above 100 µM; in experiment [6], above 100 µM; in experiment [7], above 100 µM. For the same molecule, the TGI is above 100 µM in experiment [8]; above 100 µM in experiment [9]; above 47.3 µM in experiment [12]; above 80.9 µM in experiment [13]; above 69.7 µM in experiment [14]; above 100 µM in experiment [15]. The TGI in experiment [16], in experiment [17] and in experiment [18] was above 100 µM in each case.
Take `N#CCc1nc2ccccc2c(=O)[nH]1`: the TGI in experiment [1], in experiment [2], in experiment [3], in experiment [4], in experiment [5] and in [6] was above 100 µM throughout. Further, the TGI in [8], in [9], in [10], in experiment [11], in experiment [19] and in [12] was above 100 µM in each case. Besides, the TGI in experiment [14], in experiment [15], in experiment [16], in experiment [17] and in experiment [18] was above 100 µM each time.
Take `O=C(CSc1nnc(-c2ccc(N=Cc3ccc(Cl)cc3)cc2)o1)Nc1ccc(Cl)cc1Cl`: the TGI in [1] was above 100 µM; in experiment [3] it was 52.8 µM; in experiment [4], above 100 µM; in experiment [5] it was 74.5 µM; in experiment [6], 50.5 µM; in experiment [7], above 100 µM. Besides, the TGI in experiment [9] was 36.1 µM; in [12] it was 59.3 µM; in experiment [13], 85.9 µM; in experiment [14] it was 74.6 µM; in experiment [15], 63.2 µM; in experiment [16], above 100 µM. Besides, the TGI in experiment [17] is 69.9 µM; in [18], 98.7 µM.
`COc1ccc(C2=Nc3ccccc3NC(=O)C2)cc1`: the TGI is above 100 µM in experiment [1]; above 100 µM in experiment [3]; 42.1 µM in [4]; 45.6 µM in experiment [5]; 54 µM in experiment [6]; above 100 µM in experiment [7]. Also, the TGI in experiment [8] is 37.1 µM; in [9], above 100 µM; in experiment [12], 67 µM; in [13], above 100 µM; in [14], above 100 µM; in experiment [15], above 100 µM. The values for the TGI in experiment [16], in experiment [17] and in experiment [18] were 45 µM, 82.3 µM and above 100 µM, respectively.
With `NC(=O)N=C(N(Cc1ccccc1)Cc1ccccc1)N(Cc1ccccc1)Cc1ccccc1`, the TGI in experiment [1] is above 100 µM; in experiment [20] it was above 100 µM; in [2], above 100 µM; in experiment [3] it was above 100 µM; in [5], above 65.8 µM; in experiment [6], above 64.8 µM. Further, the TGI in [7], in experiment [8], in [10], in experiment [11], in experiment [12] and in [13] was above 100 µM throughout. Moreover, the TGI was above 100 µM in [14]; above 100 µM in experiment [15]; above 100 µM in [16]; above 63.7 µM in experiment [17]; above 100 µM in [18].
For `CCOC(=O)C(=[N+]=[N-])C(=O)C1(C(=O)OCC)CCN(C(=O)c2ccccc2)C1=O` (centres undefined), the TGI in experiment [1], in experiment [2], in [3], in experiment [4], in experiment [5] and in [6] was above 100 µM each time. In addition, the TGI in [8], in [9], in experiment [10], in experiment [11], in experiment [19] and in experiment [12] was above 100 µM in each case. Besides, the TGI in experiment [13], in [15] and in [18] was above 100 µM throughout.
On to `COc1ccc(/C=C2\NC(=S)N(CN3CCCCC3)C2=O)cc1`, for which the TGI in experiment [1], in experiment [2], in experiment [3], in [5], in [6] and in [7] was above 100 µM throughout. For the same molecule, the TGI was 93.3 µM in experiment [8]; above 100 µM in [9]; 61.1 µM in experiment [10]; above 100 µM in [11]; above 100 µM in experiment [19]; above 100 µM in experiment [12]. Besides, the TGI in experiment [13], in experiment [14], in [15], in experiment [16], in [17] and in [18] was above 100 µM throughout.
